From PubChem BioAssay AID330 (DTP/NCI, 2004)
Where “and” joins values, the source holds several entries; their conditions need not be identical. Identical values can stand only once. Toxic doses and inconclusive results are not listed. Rule for the calls: active = survival T/C of 150% or more; inactive = T/C below 125% in these data.

Test system: P388 leukemia ip, CD2F1 mice, survival T/C
Test: NCI In Vivo Anticancer Drug Screen. Data for tumor model P388 Leukemia (intraperitoneal) in CD2F1 (CDF1) mice
Conditions: endpoint: median survival time, higher = longer survival
Procedure, shortened: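 Mice carrying the transplanted tumor received test compound or vehicle. Survival was recorded in each group, and the value is the treated-group measurement divided by that of the vehicle-treated control group.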

[1] = dose: 50.0 mg/kg/injection, schedule: Q01DX005 (ip), vehicle: saline with Tween-80
[2] = dose: 6.25 mg/kg/injection, schedule: Q01DX009 (ip), vehicle: saline with Tween-80
[3] = dose: 12.5 mg/kg/injection, schedule: Q01DX009 (ip), vehicle: saline with Tween-80
[4] = dose: 25.0 mg/kg/injection, schedule: Q01DX009 (ip), vehicle: saline with Tween-80
[5] = dose: 50.0 mg/kg/injection, schedule: Q01DX009 (ip), vehicle: Klucel (hydroxypropylcellulose) (HPC)
[6] = dose: 100.0 mg/kg/injection, schedule: Q01DX009 (ip), vehicle: Klucel (hydroxypropylcellulose) (HPC)
[7] = dose: 200.0 mg/kg/injection, schedule: Q01DX009 (ip), vehicle: Klucel (hydroxypropylcellulose) (HPC)
[8] = dose: 100.0 mg/kg/injection, schedule: Q01DX005 (ip), vehicle: saline with Tween-80
[9] = dose: 200.0 mg/kg/injection, schedule: Q01DX005 (ip), vehicle: saline with Tween-80
[10] = dose: 50.0 mg/kg/injection, schedule: Q01DX005 (ip), vehicle: Klucel (hydroxypropylcellulose) (HPC)
[11] = dose: 100.0 mg/kg/injection, schedule: Q01DX005 (ip), vehicle: Klucel (hydroxypropylcellulose) (HPC)
[12] = dose: 200.0 mg/kg/injection, schedule: Q01DX005 (ip), vehicle: Klucel (hydroxypropylcellulose) (HPC)
[13] = dose: 60.0 mg/kg/injection, schedule: Q01DX005 (ip), vehicle: saline with Tween-80
[14] = dose: 120.0 mg/kg/injection, schedule: Q01DX005 (ip), vehicle: saline with Tween-80
[15] = dose: 240.0 mg/kg/injection, schedule: Q01DX005 (ip), vehicle: saline with Tween-80

Measured: T/C

S=C(NCc1ccccc1)NNc1nnc(-c2ccccc2)c(-c2ccccc2)n1
inactive: dose: 12.5 mg/kg/injection, schedule: Q01DX005 (ip), vehicle: saline with Tween-80 96 % of control | dose: 25.0 mg/kg/injection, schedule: Q01DX005 (ip), vehicle: saline with Tween-80 94 % of control | [1] 91 % of control

c1ccc(CN2COc3c(ccc4ccccc34)C2)cc1
inactive: dose: 100.0 mg/kg/injection, schedule: Q04DX003 (ip), vehicle: Klucel (hydroxypropylcellulose) (HPC) 97 % of control | dose: 200.0 mg/kg/injection, schedule: Q04DX003 (ip), vehicle: Klucel (hydroxypropylcellulose) (HPC) 102 % of control | dose: 400.0 mg/kg/injection, schedule: Q04DX003 (ip), vehicle: Klucel (hydroxypropylcellulose) (HPC) 96 % of control

O=[N+]([O-])c1ccc(Sc2ncnc3c2ncn3C2OC(CO)C(O)C2O)c2nonc12 (stereo unspecified)
inactive: dose: 12.5 mg/kg/injection, schedule: Q01DX009 (ip), vehicle: suspension in saline 119 % of control | dose: 50.0 mg/kg/injection, schedule: Q01DX009 (ip), vehicle: suspension in saline 103 % of control and 122 % of control

CCOC(=O)CNCCN(CC)CC
inactive: dose: 100.0 mg/kg/injection, schedule: Q01DX001 (ip), vehicle: saline with Tween-80 109 % of control | dose: 200.0 mg/kg/injection, schedule: Q01DX001 (ip), vehicle: saline with Tween-80 95 % of control | dose: 400.0 mg/kg/injection, schedule: Q01DX001 (ip), vehicle: saline with Tween-80 100 % of control

O=C(Nc1ncn[nH]1)C(=O)Nc1ncn[nH]1
inactive: [2] 92 % of control | [3] 94 % of control | [4] 95 % of control

Cc1noc2c1N=C(c1ccccc1O)CC(c1ccccc1)C2 (stereo unspecified)
inactive: [5] 100 % of control | [6] 110 % of control | [7] 99 % of control

NCCCCC(C(=O)NC(Cc1ccccc1)C(=O)O)N(C(=O)OCc1ccccc1)C(=O)OCc1ccccc1 (stereo unspecified)
inactive: [1] 96 % of control | [8] 101 % of control | [9] 92 % of control

Cc1cc(C)c2c(c1)CC(C)(C)CC2(O)C1CCCCN1 (stereo unspecified)
inactive: [10] 100 % of control | [11] 108 % of control

O=C1C=C2CCCCCCCCCCC2CC1 (stereo unspecified)
inactive: [10] 103 % of control | [11] 92 % of control | [12] 92 % of control

CC(=O)C1C(=O)OC(C)(C)C1C=C(Cl)Cl (stereo unspecified)
inactive: dose: 100.0 mg/kg/injection, schedule: Q04DX002 (ip), vehicle: saline with Tween-80 101 % of control | dose: 200.0 mg/kg/injection, schedule: Q04DX002 (ip), vehicle: saline with Tween-80 107 % of control | dose: 400.0 mg/kg/injection, schedule: Q04DX002 (ip), vehicle: saline with Tween-80 109 % of control

O=C(O)c1cc(=O)c2cc3c(=O)cc(C(=O)O)[nH]c3c(Cl)c2[nH]1
inactive: [4] 96 % of control | dose: 50.0 mg/kg/injection, schedule: Q01DX009 (ip), vehicle: saline with Tween-80 96 % of control | dose: 100.0 mg/kg/injection, schedule: Q01DX009 (ip), vehicle: saline with Tween-80 100 % of control

CC(=N)c1ccc(C)cc1
inactive: [2] 90 % of control | dose: 6.25 mg/kg/injection, schedule: Q04DX003 (ip), vehicle: saline with Tween-80 100 % of control | [3] 90 % of control | dose: 12.5 mg/kg/injection, schedule: Q04DX003 (ip), vehicle: saline with Tween-80 95 % of control | [4] 104 % of control | dose: 25.0 mg/kg/injection, schedule: Q04DX003 (ip), vehicle: saline with Tween-80 100 % of control

Cc1cc(/C=C2/OC(=O)c3ccccc32)cc(C(C)(C)C)c1O
inactive: dose: 100.0 mg/kg/injection, schedule: Q04DX002 (ip), vehicle: saline 101 % of control | dose: 200.0 mg/kg/injection, schedule: Q04DX002 (ip), vehicle: saline 99 % of control | dose: 400.0 mg/kg/injection, schedule: Q04DX002 (ip), vehicle: saline 101 % of control

CN(CC(N)=O)C(=O)c1cnc2ccccc2c1
inactive: [13] 98 % of control | [14] 101 % of control | [15] 99 % of control

O=C(C=Nc1ccc(Cl)c(Cl)c1)c1ccccc1
inactive: [5] 100 % of control | [6] 100 % of control | [7] 94 % of control

NCCSSc1ccc([N+](=O)[O-])cc1
inactive: dose: 12.5 mg/kg/injection, schedule: Q04DX002 (ip), vehicle: Klucel (hydroxypropylcellulose) (HPC) 95 % of control | dose: 25.0 mg/kg/injection, schedule: Q04DX002 (ip), vehicle: Klucel (hydroxypropylcellulose) (HPC) 86 % of control

CC1CC(=O)OC(C(=O)c2ccccc2)N1c1ccc(C(F)(F)F)cc1N (stereo unspecified)
inactive: [13] 110 % of control | [14] 108 % of control | [15] 109 % of control

COc1cc(C(=O)N/N=C/C(=O)O)cc(OC)c1OC
inactive: [10] 101 % of control | [11] 104 % of control | [12] 101 % of control

CC(C)NC(=O)c1ccc(CN(O)Cc2ccc(C(=O)NC(C)C)cc2)cc1
inactive: dose: 25.0 mg/kg/injection, schedule: Q01DX009 (ip), vehicle: other 99 % of control | dose: 50.0 mg/kg/injection, schedule: Q01DX009 (ip), vehicle: other 99 % of control | dose: 100.0 mg/kg/injection, schedule: Q01DX009 (ip), vehicle: other 88 % of control | dose: 400.0 mg/kg/injection, schedule: Q01DX009 (ip), vehicle: other 97 % of control

c1ccc2c(c1)Sc1ccccc1C2=C1c2ccccc2Sc2ccccc21
inactive: [1] 88 % of control | [8] 90 % of control | [9] 88 % of control

S1SSSSSSS1
inactive: dose: 8.0 mg/kg/injection, schedule: Q01DX005 (ip), vehicle: Klucel (hydroxypropylcellulose) (HPC) 103 % of control | dose: 16.0 mg/kg/injection, schedule: Q01DX005 (ip), vehicle: Klucel (hydroxypropylcellulose) (HPC) 106 % of control | dose: 32.0 mg/kg/injection, schedule: Q01DX005 (ip), vehicle: Klucel (hydroxypropylcellulose) (HPC) 104 % of control | dose: 64.0 mg/kg/injection, schedule: Q01DX005 (ip), vehicle: Klucel (hydroxypropylcellulose) (HPC) 100 % of control

COc1ccc(OC)c2c(C)c(C)c(Cl)nc12
inactive: dose: 100.0 mg/kg/injection, schedule: Q01DX001 (ip), vehicle: Klucel (hydroxypropylcellulose) (HPC) 92 % of control | dose: 200.0 mg/kg/injection, schedule: Q01DX001 (ip), vehicle: Klucel (hydroxypropylcellulose) (HPC) 107 % of control | dose: 400.0 mg/kg/injection, schedule: Q01DX001 (ip), vehicle: Klucel (hydroxypropylcellulose) (HPC) 95 % of control

Cc1ccc2c[n+]3ccccc3c(-c3ccccc3)c2c1
inactive: dose: 1.56 mg/kg/injection, schedule: Q04DX003 (ip), vehicle: Klucel (hydroxypropylcellulose) (HPC) 100 % of control | dose: 3.12 mg/kg/injection, schedule: Q04DX003 (ip), vehicle: Klucel (hydroxypropylcellulose) (HPC) 100 % of control

CCOC(=O)/C(C#N)=C(O)\C(=C\c1ccc(Cl)cc1)NC(=O)c1ccc(NC(C)=O)cc1
inactive: [13] 108 % of control | [14] 97 % of control | [15] 97 % of control

CC(=O)N=C(N)N
inactive: dose: 50.0 mg/kg/injection, schedule: Q01DX009 (ip), vehicle: saline 103 % of control | dose: 100.0 mg/kg/injection, schedule: Q01DX009 (ip), vehicle: saline 100 % of control | dose: 200.0 mg/kg/injection, schedule: Q01DX009 (ip), vehicle: saline 99 % of control
